{"source": "PubChem BioAssay AID2060903", "about": "(Molecular Pharmacology Branch, DTP, NCI, 2025);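 also: spheroids exposed to compounds for seven days before readout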", "tested_on": "377384-186-R-J1-PDC complex spheroid viability", "assay": "Anticancer human tumor 377384-186-R-J1-PDC patient-derived pancreatic carcinoma cell line growth inhibition [RAS]", "settings": "for IC50: curve of first compound; for viability, T/C: stronger effect = lower value", "how_it_was_run": "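Tumour cells grown as complex spheroids with HUVEC endothelial cells and mesenchymal stem cells, treated with RAS pathway inhibitor combinations. Each agent spans half-log steps from near clinical Cmax, or 10 microM where Cmax is unknown.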", "data": [{"smiles": "CC1(C)CCC(Nc2ncc(C(F)(F)F)c(-c3c[nH]c4c(P(C)(C)=O)c(C#N)ccc34)n2)CN1", "note": "(centres undefined) + CCn1c(-c2cccnc2C(C)OC)c2c3cc(ccc31)N1CCOC(CC(NC(=O)C(C(C)C)N(C)C(=O)C3(F)CCN(C(=O)C#CC(C)(C)N(C)C)CC3)C(=O)N3CCCC(N3)C(=O)OCC(C)(C)C2)C1", "values": [{"measurement": "IC50", "setting": "second compound 0.000949 µM", "result": 6.49, "unit": "nM"}, {"measurement": "IC50", "setting": "second compound 0.003 µM", "result": 6.94, "unit": "nM"}, {"measurement": "IC50", "setting": "second compound 0.00949 µM", "result": 6.25, "unit": "nM"}, {"measurement": "IC50", "setting": "second compound 0.03 µM", "result": 6.09, "unit": "nM"}, {"measurement": "IC50", "setting": "second compound 0.0949 µM", "result": 4.39, "unit": "nM"}, {"measurement": "IC50", "setting": "second compound 0.3 µM", "result": 4.25, "unit": "nM"}, {"measurement": "viability, T/C", "setting": "second compound 0.000949 µM, first compound 0.000949 µM", "result": 96, "unit": "%"}, {"measurement": "viability, T/C", "setting": "second compound 0.000949 µM, first compound 0.003 µM", "result": 75.9, "unit": "%"}, {"measurement": "viability, T/C", "setting": "second compound 0.000949 µM, first compound 0.00949 µM", "result": 36.1, "unit": "%"}, {"measurement": "viability, T/C", "setting": "second compound 0.000949 µM, first compound 0.03 µM", "result": 30.8, "unit": "%"}, {"measurement": "viability, T/C", "setting": "second compound 0.000949 µM, first compound 0.0949 µM", "result": 22.1, "unit": "%"}, {"measurement": "viability, T/C", "setting": "second compound 0.000949 µM, first compound 0.3 µM", "result": 22.8, "unit": "%"}, {"measurement": "viability, T/C", "setting": "second compound 0.003 µM, first compound 0.000949 µM", "result": 92.7, "unit": "%"}, {"measurement": "viability, T/C", "setting": "second compound 0.003 µM, first compound 0.003 µM", "result": 82.8, "unit": "%"}, {"measurement": "viability, T/C", "setting": "second compound 0.003 µM, first compound 0.00949 µM", "result": 37.5, "unit": "%"}, {"measurement": "viability, T/C", "setting": "second compound 0.003 µM, first compound 0.03 µM", "result": 25.2, "unit": "%"}, {"measurement": "viability, T/C", "setting": "second compound 0.003 µM, first compound 0.0949 µM", "result": 22.9, "unit": "%"}, {"measurement": "viability, T/C", "setting": "second compound 0.003 µM, first compound 0.3 µM", "result": 20.3, "unit": "%"}, {"measurement": "viability, T/C", "setting": "second compound 0.00949 µM, first compound 0.000949 µM", "result": 96.6, "unit": "%"}, {"measurement": "viability, T/C", "setting": "second compound 0.00949 µM, first compound 0.003 µM", "result": 71.8, "unit": "%"}, {"measurement": "viability, T/C", "setting": "second compound 0.00949 µM, first compound 0.00949 µM", "result": 37.8, "unit": "%"}, {"measurement": "viability, T/C", "setting": "second compound 0.00949 µM, first compound 0.03 µM", "result": 23.5, "unit": "%"}, {"measurement": "viability, T/C", "setting": "second compound 0.00949 µM, first compound 0.0949 µM", "result": 21.9, "unit": "%"}, {"measurement": "viability, T/C", "setting": "second compound 0.00949 µM, first compound 0.3 µM", "result": 20.6, "unit": "%"}, {"measurement": "viability, T/C", "setting": "second compound 0.03 µM, first compound 0.000949 µM", "result": 85.2, "unit": "%"}, {"measurement": "viability, T/C", "setting": "second compound 0.03 µM, first compound 0.003 µM", "result": 73.4, "unit": "%"}, {"measurement": "viability, T/C", "setting": "second compound 0.03 µM, first compound 0.00949 µM", "result": 35.3, "unit": "%"}, {"measurement": "viability, T/C", "setting": "second compound 0.03 µM, first compound 0.03 µM", "result": 19.5, "unit": "%"}, {"measurement": "viability, T/C", "setting": "second compound 0.03 µM, first compound 0.0949 µM", "result": 19.3, "unit": "%"}, {"measurement": "viability, T/C", "setting": "second compound 0.03 µM, first compound 0.3 µM", "result": 16.3, "unit": "%"}, {"measurement": "viability, T/C", "setting": "second compound 0.0949 µM, first compound 0.000949 µM", "result": 88.5, "unit": "%"}, {"measurement": "viability, T/C", "setting": "second compound 0.0949 µM, first compound 0.003 µM", "result": 61.7, "unit": "%"}, {"measurement": "viability, T/C", "setting": "second compound 0.0949 µM, first compound 0.00949 µM", "result": 26.1, "unit": "%"}, {"measurement": "viability, T/C", "setting": "second compound 0.0949 µM, first compound 0.03 µM", "result": 19.4, "unit": "%"}, {"measurement": "viability, T/C", "setting": "second compound 0.0949 µM, first compound 0.0949 µM", "result": 16.6, "unit": "%"}, {"measurement": "viability, T/C", "setting": "second compound 0.0949 µM, first compound 0.3 µM", "result": 14.8, "unit": "%"}, {"measurement": "viability, T/C", "setting": "second compound 0.3 µM, first compound 0.000949 µM", "result": 85.2, "unit": "%"}, {"measurement": "viability, T/C", "setting": "second compound 0.3 µM, first compound 0.003 µM", "result": 61.6, "unit": "%"}, {"measurement": "viability, T/C", "setting": "second compound 0.3 µM, first compound 0.00949 µM", "result": 23, "unit": "%"}, {"measurement": "viability, T/C", "setting": "second compound 0.3 µM, first compound 0.03 µM", "result": 18.1, "unit": "%"}, {"measurement": "viability, T/C", "setting": "second compound 0.3 µM, first compound 0.0949 µM", "result": 15.7, "unit": "%"}, {"measurement": "viability, T/C", "setting": "second compound 0.3 µM, first compound 0.3 µM", "result": 13.4, "unit": "%"}]}, {"smiles": "CC1(C)CCC(Nc2ncc(C(F)(F)F)c(-c3c[nH]c4c(P(C)(C)=O)c(C#N)ccc34)n2)CN1", "note": "(centres undefined) + C=CC(=O)N1CCN(c2nc(OCC3CCCN3C)nc3c(F)c(-c4nc(N)cc(C)c4C(F)(F)F)c(Cl)cc23)C(C)C1", "values": [{"measurement": "IC50", "setting": "second compound 0.00316 µM", "result": 2.98, "unit": "nM"}, {"measurement": "IC50", "setting": "second compound 0.01 µM", "result": 4.06, "unit": "nM"}, {"measurement": "IC50", "setting": "second compound 0.0316 µM", "result": 4.22, "unit": "nM"}, {"measurement": "IC50", "setting": "second compound 0.1 µM", "result": 2.65, "unit": "nM"}, {"measurement": "IC50", "setting": "second compound 0.316 µM", "result": 3.18, "unit": "nM"}, {"measurement": "IC50", "setting": "second compound 1 µM", "result": 3.33, "unit": "nM"}, {"measurement": "viability, T/C", "setting": "second compound 0.00316 µM, first compound 0.000949 µM", "result": 83.3, "unit": "%"}, {"measurement": "viability, T/C", "setting": "second compound 0.00316 µM, first compound 0.003 µM", "result": 49.5, "unit": "%"}, {"measurement": "viability, T/C", "setting": "second compound 0.00316 µM, first compound 0.00949 µM", "result": 27.8, "unit": "%"}, {"measurement": "viability, T/C", "setting": "second compound 0.00316 µM, first compound 0.03 µM", "result": 15.9, "unit": "%"}, {"measurement": "viability, T/C", "setting": "second compound 0.00316 µM, first compound 0.0949 µM", "result": 14.4, "unit": "%"}, {"measurement": "viability, T/C", "setting": "second compound 0.00316 µM, first compound 0.3 µM", "result": 13.2, "unit": "%"}, {"measurement": "viability, T/C", "setting": "second compound 0.01 µM, first compound 0.000949 µM", "result": 89, "unit": "%"}, {"measurement": "viability, T/C", "setting": "second compound 0.01 µM, first compound 0.003 µM", "result": 57.6, "unit": "%"}, {"measurement": "viability, T/C", "setting": "second compound 0.01 µM, first compound 0.00949 µM", "result": 28.6, "unit": "%"}, {"measurement": "viability, T/C", "setting": "second compound 0.01 µM, first compound 0.03 µM", "result": 17, "unit": "%"}, {"measurement": "viability, T/C", "setting": "second compound 0.01 µM, first compound 0.0949 µM", "result": 13.9, "unit": "%"}, {"measurement": "viability, T/C", "setting": "second compound 0.01 µM, first compound 0.3 µM", "result": 14.7, "unit": "%"}, {"measurement": "viability, T/C", "setting": "second compound 0.0316 µM, first compound 0.000949 µM", "result": 79.1, "unit": "%"}, {"measurement": "viability, T/C", "setting": "second compound 0.0316 µM, first compound 0.003 µM", "result": 60.1, "unit": "%"}, {"measurement": "viability, T/C", "setting": "second compound 0.0316 µM, first compound 0.00949 µM", "result": 26, "unit": "%"}, {"measurement": "viability, T/C", "setting": "second compound 0.0316 µM, first compound 0.03 µM", "result": 18.8, "unit": "%"}, {"measurement": "viability, T/C", "setting": "second compound 0.0316 µM, first compound 0.0949 µM", "result": 14.8, "unit": "%"}, {"measurement": "viability, T/C", "setting": "second compound 0.0316 µM, first compound 0.3 µM", "result": 15, "unit": "%"}, {"measurement": "viability, T/C", "setting": "second compound 0.1 µM, first compound 0.000949 µM", "result": 74.6, "unit": "%"}, {"measurement": "viability, T/C", "setting": "second compound 0.1 µM, first compound 0.003 µM", "result": 46.9, "unit": "%"}, {"measurement": "viability, T/C", "setting": "second compound 0.1 µM, first compound 0.00949 µM", "result": 27.7, "unit": "%"}, {"measurement": "viability, T/C", "setting": "second compound 0.1 µM, first compound 0.03 µM", "result": 17.5, "unit": "%"}, {"measurement": "viability, T/C", "setting": "second compound 0.1 µM, first compound 0.0949 µM", "result": 14.5, "unit": "%"}, {"measurement": "viability, T/C", "setting": "second compound 0.1 µM, first compound 0.3 µM", "result": 12.5, "unit": "%"}, {"measurement": "viability, T/C", "setting": "second compound 0.316 µM, first compound 0.000949 µM", "result": 76.1, "unit": "%"}, {"measurement": "viability, T/C", "setting": "second compound 0.316 µM, first compound 0.003 µM", "result": 51.3, "unit": "%"}, {"measurement": "viability, T/C", "setting": "second compound 0.316 µM, first compound 0.00949 µM", "result": 26.7, "unit": "%"}, {"measurement": "viability, T/C", "setting": "second compound 0.316 µM, first compound 0.03 µM", "result": 16.5, "unit": "%"}, {"measurement": "viability, T/C", "setting": "second compound 0.316 µM, first compound 0.0949 µM", "result": 13.6, "unit": "%"}, {"measurement": "viability, T/C", "setting": "second compound 0.316 µM, first compound 0.3 µM", "result": 13.2, "unit": "%"}, {"measurement": "viability, T/C", "setting": "second compound 1 µM, first compound 0.000949 µM", "result": 78.7, "unit": "%"}, {"measurement": "viability, T/C", "setting": "second compound 1 µM, first compound 0.003 µM", "result": 52.6, "unit": "%"}, {"measurement": "viability, T/C", "setting": "second compound 1 µM, first compound 0.00949 µM", "result": 25, "unit": "%"}, {"measurement": "viability, T/C", "setting": "second compound 1 µM, first compound 0.03 µM", "result": 17.4, "unit": "%"}, {"measurement": "viability, T/C", "setting": "second compound 1 µM, first compound 0.0949 µM", "result": 16, "unit": "%"}, {"measurement": "viability, T/C", "setting": "second compound 1 µM, first compound 0.3 µM", "result": 12.5, "unit": "%"}]}]}
